# Results taken from patent US20250205226A1, “USE OF N-(3-(4-(3-(DIISOBUTYLAMINO)PROPYL)PIPERAZIN-1-YL)PROPYL)-1H-BENZO[D]IMIDAZOL-2-AMINE SALTS AND SOLVATES THEREOF FOR THE TREATMENT OF SENSORY NEURON DISEASES” (ALZPROTECT, priority 2022, published 2025).
# Read-outs that look alike come from different tables or passages of the source.
# Tested on: primary culture of rat sensory neurons and Schwann cells
# Type: cell-based
# Details: for Effect on SN neurite network after cisplatin injury / Effect on SN survival as compared to the cisplatin condition: 3 nM to 100 nM, with cisplatin 10 μg/mL injury; for Survival of SNs (number of MAP-2 positive SNs), mean survival / Total neurite network (MAP-2), mean length: percentage of control, 24 h
# Procedure: Primary sensory neurons (SN) and Schwann cells (SC) were cultured as previously described in Cancer Chem. Pharmacol. 2008 November;62 (6): 995-1007. Briefly, pregnant female rats of 15 days gestation (Rats Wistar; Janvier Labs France) were killed using a deep anesthesia with CO2 chamber and a cervical dislocation. Then, fetuses were collected and immediately placed in ice-cold L15 Leibovitz medium with a 2% penicillin (10,000 U/mL) and streptomycin (10 mg/mL) solution (PS) and 1% bovine serum albumin (BSA). DRG from spinal cord were treated for 20min at 37° C. with a trypsin-EDTA solution at a final concentration of 0.05% trypsin and 0.02% EDTA. The dissociation was stopped by addition of Dulbecco's modified Eagle's medium (DMEM) with 4.5 g/L of glucose, containing DNAse I grade II (final concentration 0.5 mg/mL) and 10% fetal calf serum (FCS). Cells were mechanically dissociated through the tip of a 10 mL pipette. Cells were then centrifuged at 515× g for 10 min at 4° C. DMEM F12 with a 1% solution of N2 supplement, 2 mmol/L of L-glutamine, 2% of PS solution, NGF (5 ng/ml) and NT3 (5 ng/ml). Cells were seeded at a density of 15,000 per well in 96-well plates pre-coated with poly-L-lysine and cultured at 37° C. in an air (95%)-CO2 (5%) incubator. […] Cells were washed twice in PBS. Cell membranes were permeabilized and non-specific sites were blocked with a solution of PBS containing 0.1% of saponin and 1% FCS for 15 min at room temperature. Then, cells were incubated for 2 h with a mouse monoclonal antibody anti-microtubule associated protein 2 (MAP-2) at dilution of 1/400 in PBS containing 1% fetal calf serum and 0.1% of saponin. This antibody binds specifically MAP-2 present in cell bodies and neurites of all SNs. […] Nuclei of neurons were labeled by a fluorescent marker (Hoechst solution). For each condition, 30 pictures (representative of 90% of the well area) per well were automatically taken using ImageXpress (Molecular Devices) with 20× magnification. All images were taken under the same conditions (exposition time, gain and laser intensity). Analysis of different endpoints was automatically performed using Custom Module Editor (Molecular Devices). The endpoints were: • Survival of SNs (number of MAP-2 positive SNs) • Total neurite network (MAP-2): total length of neurites of SNs (expressed in μm) All values are expressed as mean +/−SEM. Statistical analysis was performed by one-way ANOVA, followed by PLSD Fisher test.
Molecule,Effect on SN neurite network after cisplatin injury,Effect on SN survival as compared to the cisplatin condition,"Survival of SNs (number of MAP-2 positive SNs), mean survival (10 nM (maximal effect) with cisplatin 10 μg/mL injury, FIG. 8A)","Total neurite network (MAP-2), mean length (10 nM (maximal effect) with cisplatin 10 μg/mL injury, FIG. 8B)","Survival of SNs (number of MAP-2 positive SNs), mean survival (30 nM (maximal effect) with cisplatin 10 μg/mL injury, FIG. 7A)","Total neurite network (MAP-2), mean length (30 nM (maximal effect) with cisplatin 10 μg/mL injury, FIG. 7B)"
N-(3-(4-(3-(diisobutylamino)propyl)piperazin-1-yl)propyl)-^1H-benzo[d]imidazol-2-amine sesqui-succinate salt [sesqui-succinate salt Form 1],able to protect the neurite network from cisplatin damage,positive and significant effect on survival,~77%,~80%,–,–
CC(C)CN(CCCN1CCN(CCCNc2nc3ccccc3[nH]2)CC1)CC(C)C.O=S(=O)(O)O.O=S(=O)(O)O [N-(3-(4-(3-(diisobutylamino)propyl)piperazin-1-yl)propyl)-1H-benzo[d]imidazol-2-amine di-sulphate],able to improve the neurite network after cisplatin injury,positive and significant effect on survival,–,–,80%,83%
